The record followed here is PubChem BioAssay AID602236 (The Scripps Research Institute Molecular Screening Center, 2012).

Active and inactive are the calls of the source.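 The calls were made as follows: active = IC50 of 10 µM or lower; inactive = IC50 above 10 µM.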 Some results are limits rather than exact numbers.

For the test, the system named is HEK-293 Gal4-VP16 UAS luciferase reporter, luminescence. Kind of test: VP16 transactivation inhibitor potency, dose response, counter-screen for SRC1 inhibitor project, cell-based, luminescence, high throughput, SRC1 series (AID 602236).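 Also: inhibitor potency where hits lower luciferase light from Gal4-VP16 transactivation.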 In general terms: The purpose of a counterscreen is to sort out artefacts and off-target activity.
A word on the IC50: it is the midpoint of a concentration-inhibition curve. In the case of `COc1ccc(NC(=O)CN(C)C(=O)C2(c3ccccc3)CCCC2)cc1`, the IC50 is 36.3 µM (inactive).
Consider `CCCCC(=O)Nc1cccn2ncnc12`, for which the IC50 is > 35.9 µM (inactive).
To `CCCS(=O)(=O)Nc1ccc(Nc2c3ccccc3nc3ccccc23)c(OC)c1` belongs > 35.9 µM (inactive); to `Cc1ccc(S(=O)(=O)NC(CC(C)C)C(=O)NCC(c2ccco2)N2CCCCC2)cc1` (configuration not stated), > 35.9 µM (inactive).
As for `O=C(OC(c1ccccc1)c1nccc2ccccc12)c1ccccc1` (configuration not stated), the IC50 is 23.9 µM (inactive).
As to `c1ccc(-c2nnc(-c3ccccn3)nc2NC2CCCCC2)cc1`, the IC50 was > 35.9 µM (inactive).
To `O=C(N/N=C/c1coc2ccc(Cl)cc2c1=O)c1ccc(O)cc1` belongs > 35.9 µM (inactive).
Consider `COc1ccc2c(=O)cc(-c3ccncc3)oc2c1OC`, for which the IC50 was > 12 µM (inactive).
To `Cc1nc2c(-c3ccc(Cl)cc3)c(C)[nH]n2c(=O)c1Cc1ccccc1` belongs 6.96 µM; to `CCCCCCCC[n+]1c(C)n(-c2ccccc2)c2ccc(NC(C)=O)cc21`, 10.5 µM (inactive); to `Nc1ccc(-c2cc3ccccc3oc2=O)cc1`, > 35.8 µM (inactive).
Under `COC(=O)N(NC(=O)C(O)(CCC(C)C)CCC(C)C)c1ccccc1` stands > 35.9 µM (inactive); under `CC1CCN(C(=O)c2scc3c2OCCO3)CC1`, 16.4 µM (inactive).
Under `O=C(CCCc1nc(-c2ccccc2Cl)no1)NC1CCCC1` stands 13.6 µM (inactive); under `CCOC(=O)CC(=O)CSc1nccc(-c2cccnc2)n1`, > 35.9 µM (inactive).
As to `COc1ccccc1NS(=O)(=O)c1cccc(NC(=O)c2cncc(Br)c2)c1`, the IC50 was 12 µM (inactive).
`Nc1ccn([C@@H]2O[C@H](CO)[C@@H](O)C2O)c(=O)n1` (some centres not stated): the IC50 is 16.2 µM (inactive).
To `Cc1ccc(C)c(NC(=O)c2ccccc2NS(=O)(=O)c2cc([N+](=O)[O-])ccc2C)c1` belongs 3.98 µM.
Under `CCCS(=O)(=O)c1c(S(=O)(=O)CCC)c2c(C)cccn2c1C(=O)N/N=C/c1cc(O)cc(O)c1` stands 5 µM; under `O=C(NC1CCCCC1)C(c1cccnc1)N(C(=O)CCl)c1cccc(Cl)c1` (configuration not stated), 4.71 µM.
Under `Nc1ccc(Oc2ccccc2-c2ccccc2)cc1` stands 19 µM (inactive).
As for `CCC(=O)c1ccc(Oc2nc3c(c(=O)n(C)c(=O)n3C)n2CC)cc1`, the IC50 is 12.4 µM (inactive).
As for `Cn1nc(C(F)(F)F)c(C#N)c1N1CCN(c2ccccc2)CC1`, the 50% inhibitory concentration (IC50) was 6.34 µM.
Regarding `CN(Cc1cnc2nc(N)nc(N)c2n1)c1ccc(C(=O)NC(CCC(=O)O)C(=O)O)c2ccccc12` (configuration not stated), the IC50 is > 35.9 µM (inactive).
To `CN(c1ccc(C(=O)N2CCN(Cc3ccc4c(c3)OCO4)CC2)cc1)S(=O)(=O)c1ccccc1` belongs 13.5 µM (inactive).
In the case of `Cc1cc(C)nc(SCc2ccc(C(=O)N/N=C/c3cccc(O)c3O)cc2)n1`, the IC50 was 5.29 µM.
To `COc1ccccc1CNC(=O)C(=O)NCCC1CCCCN1S(=O)(=O)c1ccc(C)cc1` (configuration not stated) belongs 23.1 µM (inactive); to `Cc1nc2ccccn2c1-c1ccnc(=S)[nH]1`, > 35.8 µM (inactive).
`CN(CC(=O)Nc1ccc(Cl)c(C(F)(F)F)c1)C(=O)C1CC(=O)N(c2ccc3c(c2)OCCO3)C1` (configuration not stated): the IC50 is 25.1 µM (inactive).
Under `CCC(C)(C)n1nnnc1CN1CCC(n2c(C)nc3cc(C(F)(F)F)ccc32)CC1` stands > 35.9 µM (inactive); under `CCn1c(Oc2ccc(F)cc2)nc2c1c(=O)n(C)c(=O)n2C`, 12.4 µM (inactive); under `Cc1ccc(NC(=O)C2CCN(c3ncnc4sc(C)c(C)c34)CC2)cc1S(=O)(=O)N(C)C`, 13.4 µM (inactive).
Take `O=C(Nc1ccncc1)c1ccccc1[N+](=O)[O-]`: the IC50 was 14.2 µM (inactive).
`CC(C)Cn1c(N)c(C(=O)COC(=O)c2cc3ccccc3cc2O)c(=O)n(C)c1=O`: the IC50 was 29.3 µM (inactive).
Under `Fc1ccc(CSc2nnc(-c3ccncc3)o2)cc1` stands 7.85 µM; under `CN(C)C(=O)c1ccc(-c2n[nH]c(=O)c3ccccc23)cc1`, 16.2 µM (inactive); under `N#Cc1c(-c2ccccc2)c(C#N)c2nc3ccccc3n2c1N`, > 35.9 µM (inactive).
To `N#Cc1c2ccc(O)cc2n2ccccc12` belongs > 35.9 µM (inactive); to `c1ccc(-c2csc3ncnc(NCCN4CCOCC4)c23)cc1`, 18.7 µM (inactive).
To `COc1cccc(NC(=O)CN(C)CC(=O)Nc2ccc(Cl)cc2[N+](=O)[O-])c1` belongs 20.3 µM (inactive); to `Cc1sc2ncnc(N3CCC(C(=O)Nc4cc(S(C)(=O)=O)ccc4Cl)CC3)c2c1C`, 20.7 µM (inactive); to `Nc1ncccc1C(=O)OCC(=O)N1CCN(S(=O)(=O)c2ccc(Cl)cc2)CC1`, 12.8 µM (inactive).
With `CC(NC(=O)COC(=O)c1cccs1)c1ccccc1` (configuration not stated), the IC50 is > 35.9 µM (inactive).
As for `NS(=O)(=O)c1ccc(Nc2nc(-c3cccnc3)cs2)cc1`, the IC50 is > 35.8 µM (inactive).
To `COc1ccc(-c2cc(=O)oc3c(C)c(O)c(CN(C)C)cc23)cc1` belongs 15 µM (inactive); to `O=C(CCC(=O)Nc1ccc(Br)cc1)N/N=C/c1ccccc1O`, 4.9 µM; to `CN(Cc1cnc2nc(N)nc(N)c2n1)c1ccc(C(=O)N[C@@H](CCC(=O)O)C(=O)O)cc1`, > 35.9 µM (inactive).
Under `CC[C@@]1(O)C(=O)OCc2c1cc1n(c2=O)Cc2cc3c(NC(=O)CN)cccc3nc2-1` stands > 35.9 µM (inactive).
Under `Cc1ccc(S(=O)(=O)Nc2c(NC3CCCCC3)c3ccccc3oc2=O)c(C)c1` stands 12.8 µM (inactive); under `Cc1ccc(C(=O)Nc2sc(C)c(-c3ccccc3)c2C(N)=O)cc1[N+](=O)[O-]`, > 35.9 µM (inactive); under `O=C(Nc1cccnc1)c1ccc(C(=O)Nc2cccnc2)cc1`, > 35.9 µM (inactive).
Take `Cc1c2ccncc2cc2c1[nH]c1ccccc12`: the IC50 is 6.48 µM.
Under `O=C(CSc1nc(-c2cccs2)cc(C(F)(F)F)n1)Nc1cc(OCC(F)(F)C(F)F)cc([N+](=O)[O-])c1` stands 21.9 µM (inactive); under `Nc1nc(CCl)nc(Nc2cccc3ccccc23)n1`, 11.1 µM (inactive).
To `COc1cc(/C=C2\SC(N)=NC2=O)cc(OC)c1` belongs 8.33 µM; to `C=C1C(=O)[C@@]23C[C@H]4[C@@H]5[C@@]6(C)CCC[C@@]57[C@@H]2[C@@H](O)[C@@H]1C[C@H]3[C@H]7N4C6`, 8.05 µM.
For `CC(=O)C1=C(C)NC2=C(C(=O)CC(C)(C)C2)C1C` (configuration not stated), the IC50 is 13.1 µM (inactive).
To `CC(=O)N1CCN(c2ccc(Oc3ncnc4sccc34)cc2)CC1` belongs 9.64 µM.
`COC(=O)c1cccc2c1-c1ccccc1/C2=N/O`: the IC50 is 4.87 µM.
Under `COc1ccc(CNc2ncc(-c3ccc(F)cc3)n2C)c2ccccc12` stands > 35.9 µM (inactive); under `CCCCN(CCCC)c1ncnc2nc[nH]c12`, 6.97 µM; under `O=C(CCC1CCCC1)Nc1ccc(C(=O)NCc2cccnc2)cc1`, 7.75 µM.
Under `COc1ccc(Nc2ncnc3ccc(C)cc23)cc1` stands 8.4 µM.
Regarding `O=C1NCCc2c1[nH]c1ccc([N+](=O)[O-])cc21`, the IC50 was 32 µM (inactive).
To `COc1cc([C@@H]2c3cc4c(cc3[C@@H](O[C@@H]3O[C@@H]5CO[C@@H](C)O[C@H]5[C@H](O)[C@H]3O)[C@H]3COC(=O)[C@H]23)OCO4)cc(OC)c1O` belongs > 35.9 µM (inactive); to `COc1ccc2c(c1)-c1c(ssc1=S)C(C)(C)N2C(=O)CSC1=NCCS1`, 20.6 µM (inactive); to `CC(C)(C)c1cc(C(=O)N/N=C/c2ccc(O)cc2)n(-c2ccccc2)n1`, 21.9 µM (inactive).
As for `CCn1c(Oc2cccc(Br)c2)nc2c1c(=O)n(C)c(=O)n2C`, the IC50 is 25.8 µM (inactive).
Under `CCOc1ccc(/C=C2\SC(=S)N(CCC(=O)O)C2=O)cc1` stands > 35.9 µM (inactive); under `CCOc1ccccc1-n1c(SCC(=O)Nc2ccccc2C(=O)O)nc2ccccc2c1=O`, > 35.9 µM (inactive); under `Cc1ccc(/C=C2/SC(=S)N(CCCC(=O)Nc3ccc(O)cc3)C2=O)cc1`, > 12 µM (inactive).
On to `CC1(C)Cc2c(ccc3ccccc23)C(=O)N1`, for which the concentration for half-maximal inhibition (IC50) was 8.4 µM.
Under `CCCCC(=O)OCC(=O)C1(O)Cc2c(O)c3c(c(O)c2C(OC2CC(NC(=O)C(F)(F)F)C(O)C(C)O2)C1)C(=O)c1c(OC)cccc1C3=O` (configuration not stated) stands 6.82 µM; under `O=[N+]([O-])c1ccc(N(CCO)CCO)c2c1no[n+]2[O-]`, 7.87 µM; under `Cc1nn(CC(=O)N2CCN(c3cccc(C(F)(F)F)c3)CC2)c(=O)c2cccn12`, 17.6 µM (inactive).
On to `COc1ccc(-c2cnc(N)nc2-c2ccc(OC)cc2O)cc1`, for which the IC50 is 11.7 µM (inactive).
`c1cc2c(cn1)cnc1cscc12`: the IC50 is 11.8 µM (inactive).
Under `COc1ccc2c(C#N)c3ccccn3c2c1` stands > 35.8 µM (inactive); under `CCN(CC)CCNC(=O)c1ccc(NC(=O)C2CCN(c3ncnc4sc(C)c(C)c34)CC2)cc1`, 5.54 µM.
Under `CCn1ccnc1CN(C)Cc1cn[nH]c1-c1ccc(F)cc1F` stands 11 µM (inactive); under `C=CCn1c(Oc2ccccc2F)nc2c1c(=O)n(C)c(=O)n2C`, 8.46 µM.
To `Cc1cccc(C)c1-n1nnnc1C(c1cccs1)N1CCC2(CC1)C(=O)NCN2c1ccccc1` (configuration not stated) belongs 14.4 µM (inactive).
For `CN(C)c1ccc(/C=C/c2nc3ccccc3s2)cc1`, the IC50 is 19.8 µM (inactive).
As for `NC(=O)c1cc(Sc2ccccc2)nc2ccccc12`, the IC50 was 11.6 µM (inactive).
Under `COc1ccccc1-c1cc2nc(-c3ccccc3)cc(N3CCN(C(=O)c4ccco4)CC3)n2n1` stands 4.1 µM; under `Cc1ccc(S(=O)(=O)N2[C@@H](c3ccc(C(C)(C)C)cc3)C(C(=O)O)=CC[C@H]2c2ccc(Cl)cc2)cc1`, 16 µM (inactive).
To `Cc1noc(/C=C/c2ccco2)c1S(=O)(=O)N1CCC(C(=O)Nc2ccc(Cl)cn2)CC1` belongs 16.1 µM (inactive).
